# Patent publication US12350256B2, “Histidine and/or histidine derivative for the treatment of inflammatory skin diseases” (Curapel (Scotland) Limited, priority 2008, dated 2025)
# Test system: Adult patients with moderate to severe chronic atopic dermatitis
# Assay: Randomised, double-blind, placebo-controlled study of oral L-histidine in atopic dermatitis (SCORAD, POEM, TEWL)
# Type: in vivo, human
# Protocol: A randomised, double-blind, placebo-controlled study was conducted as follows: Adult (i.e. greater than 18 years of age) patients with moderate to severe chronic atopic dermatitis were recruited to the study from patients and diagnosis of atopic dermatitis confirmed using the UK Working Party's Diagnostic criteria (see Williams et al, Br. J. Dermatol. 1994; 131:383-96). Exclusion criteria were: patients aged less than 18 years, pregnancy or lactation, liver disease, exposure to natural or artificial ultra-violet radiation, immunosuppression due to disease or medication and Chinese herbal medicine in the 3 months preceding the study. Patients were asked to cease potent topical steroid use during the study. Disease severity was quantified by a research nurse using the well established SCORAD system (see Schmitt et al, European Dermato-Epidemiology Network, J. Allergy Clin. Immunol., 2007; 120:1389-98) and self assessed by the patients using POEM (Patient-Oriented Eczema Measure; see […] et al, J. Arch. Dermatol. 2004; 140-1513-9). Skin barrier function was assessed using a Vapometer® which quantifies Trans Epidermal Water Loss (TEWL; see Fluhr et al, Exp. Dermatol., 2006; 15:483-92). Atopic dermatitis patients were randomised into each of 2 groups and after a 'washout' period of 2 weeks and received either 4.0 g of powder L-histidine or 4.0 g of placebo (the naturally occurring food sweetener, erythritol) powder daily for 4 weeks. The patients were instructed to dissolve either the L-histidine or placebo powder in fruit juice. Neither the patient nor the clinical staff was aware of the identity of treatments administered.
# [1] = 4.0 g daily oral for 4 weeks, n=4
compound,measurement,setting,value
"N[C@@H](Cc1c[nH]cn1)C(=O)O [L-Histidine, 2-amino-3-(3H-imidazol-4-yl)propanoic acid]",POEM % change after 4 wks,[1],−25%
same,SCORAD % change after 4 wks,[1],−22%
same,SCORAD after 4 wks,[1],25
same,TEWL % change after 4 wks,[1],−50%
same,reduction of clinician-scored disease activity (SCORAD),4 weeks of 4.0 g daily,22%
same,reduction of patient-scored disease activity,4 weeks of 4.0 g daily,25%
same,reduction of transepidermal water loss (TEWL),4 weeks of 4.0 g daily,50%
same,TEWL after 4 wks,"Vapometer, 4.0 g daily oral for 4 weeks, n=4",8
same,SCORAD before,"baseline before treatment, 4.0 g daily oral group, n=4",37
same,TEWL before,"baseline before treatment, Vapometer, 4.0 g daily oral group, n=4",16
same,POEM before,"baseline before treatment, patient self-assessed, 4.0 g daily oral group, n=4",20
same,POEM after 4 wks,"patient self-assessed, 4.0 g daily oral for 4 weeks, n=4",15
